Laboratory results reported in ChEMBL document CHEMBL4196242, “Irpeksins A-E, 1,10- seco-Eburicane-Type Triterpenoids from the Medicinal Fungus Irpex lacteus and Their Anti-NO Activity” (J Nat Prod, 2018).

tested on: RAW264.7; test: Inhibition of LPS-induced nitric oxide production in mouse RAW264.7 cells after 18 hrs by Griess assay; assay type: functional, cell-based; conditions: RAW264.7, 18 h

Row | Compound | IC50 [µM]
1 | CC1=C(C)[C@@]2(C[C@@H](C)[C@H]3[C@H](C[C@@]4(C)c5ccc(C(C)(C)/C=C/CO)c(C)c5O[C@H](O)C[C@]34C)O2)OC1=O | 19.6
2 | CC1=C(C)[C@@]2(C[C@@H](C)[C@H]3[C@H](C[C@@]4(C)c5ccc(C(C)(C)CCCO)c(C)c5C(=O)C[C@]34C)O2)OC1=O | 12.8
3 | CC1=C(C)[C@@]2(C[C@@H](C)[C@H]3[C@H](C[C@@]4(C)c5ccc(C(C)(C)/C=C/CO)c(C)c5C(=O)C[C@]34C)O2)OC1=O | 2.2
4 | CC1=C(C)[C@@]2(C[C@@H](C)[C@H]3[C@H](C[C@@]4(C)c5ccc(C(C)(C)/C=C/C(=O)O)c(C)c5[C@H](O)C[C@]34C)O2)OC1=O | 4.5

Results, then the compound that gave them:

Row | IC50 [µM] | Compound
5 | 17.9 | CC1=C(C)[C@@]2(C[C@@H](C)[C@H]3[C@H](C[C@@]4(C)c5ccc(C(C)(C)/C=C/C(=O)O)c(C)c5C(=O)C[C@]34C)O2)OC1=O
6 | 32.9 | CNC(=N)NCCC[C@H](N)C(=O)O [TILARGININE]
